Literature values, collected in patent publication US20200352795A1, “WETNESS INDICATOR WITH HARDENERS” (SAVARE' I.C. S.r.l., priority 2018, published 2020).

Settings: not given

Row | SMILES | pKa of pH-indicator colorant
1 | O=S1(=O)OC(c2cc(Br)c(O)c(Br)c2)(c2cc(Br)c(O)c(Br)c2)c2ccccc21 [Bromophenol Blue Free Acid] | ~4.0
2 | Cc1cc(C2(c3cc(C)c(O)c(Br)c3)OS(=O)(=O)c3ccccc32)cc(Br)c1O [Bromocresol Purple Free Acid] | 6.3
3 | O=C1OC2(c3cc(Br)c(O)c(Br)c3Oc3c2cc(Br)c(O)c3Br)c2c(Cl)c(Cl)c(Cl)c(Cl)c21 [Acid Phloxine B] | ~2.9

Same assay, conditions: Table 1

Row | SMILES | pKa
4 | Cc1c(C2(c3cc(Br)c(O)c(Br)c3C)OS(=O)(=O)c3ccccc32)cc(Br)c(O)c1Br [Bromocresol Green Free Acid] | 4.8
5 | O=S(=O)(O)c1ccc(N=C2C=CC(=C(c3ccc(Nc4ccc(S(=O)(=O)O)cc4)cc3)c3ccc(Nc4ccc(S(=O)(=O)O)cc4)cc3)C=C2)cc1 [Aniline Blue (also known as Methyl Blue), Aniline Blue] | 11.7
6 | O=C1OC2(c3cc(Br)c(O)c(Br)c3Oc3c2cc(Br)c(O)c3Br)c2c(Cl)c(Cl)c(Cl)c(Cl)c21 [Acid Phloxine B] | 2.9
